Source: patent US5519115A, “Reverse antimicrobial peptides” (priority 1993, dated 1996)

Columns and labels:
P3 Fusarium = assay: Antifungal bioassay (MCIC, spore germination); format: cell-based, P3 Fusarium (field isolate); details: 10^7 spores/test; mean after 24 hours of treatment, at least three replicates
Method: Fungi were grown on an appropriate medium, in this case a potato dextrose agar plate, for several weeks. At the end of that period, the plate was flooded with about 5 mL of sterile distilled water to harvest spores. The spore concentration was determined by use of a hemocytometer and the spore suspension was stored in a sterile tube at 4° C. until it was needed. Then 82 microliters of potato dextrose broth and 3 microliters of spore suspension (ranging from 10^5 to 10^7 spores total) were added to 12 wells in a 96 well microtiter plate for each AMPPP to be tested, with 1-4 replicate sets of 12 wells prepared for each AMPPP within a single experiment. […] The amount of spore germination and fungal growth was recorded as a quantitative measurement at each observation time using a system of pluses and minuses: [-] meant no germination having occurred, [+] meant swollen spores with an extended germ tube, [++] meant the beginnings of mycelial growth with the overall appearance of a loose lattice, and [+++] meant a dense mycelial growth with the overall appearance of a thick opaque meshwork. The MCIC value for each AMPPP tested was then recorded, where the MCIC value is defined as the lowest peptide concentration at which no spore germination occurred (rating=[-]). […]

[1] = tested on: Erwinia carotovora carotovora strain SR319 (Ecc SR319); assay: Antibacterial bioassay (MCIC); format: cell-based
Method: Erwinia carotovora carotovora strain SR319 (Ecc SR319) (a gift of Dr. C. H. Liao, USDA-ARS, Philadelphia, Pa.) was streaked on a plate of Luria-Bertani ("LB") broth agar and grown overnight at 28° C. After 24 hours, a loopful of Ecc SR319 was picked from the agar plate and was added to 3 ml of LB broth (10 g Bacto-tryptone, 5 g Bacto-yeast extract, and 10 g sodium chloride per liter of solution; autoclaved sterile) in a capped sterile 10 ml test tube. This culture was grown overnight before its optical density at 630 nm was recorded using a Dynatech MR 600 microplate reader (Dynatech Laboratories, Inc., Alexandria, Va.). A portion of the overnight culture was adjusted with Luria broth to obtain a culture with an optical density at 630 nm of 0.2. About 250 microliters of this culture was added to 2250 microliters of Luria broth in a capped, sterile 10 ml test tube before this diluted culture was grown for 3-4 hours at 28° C. in a shaking incubator until the optical density of the freshly grown culture at 630 nm reached 0.2. […] The optical density of each Ecc SR319 culture well was recorded at 20 hours and then at 44 hours. A minimum complete inhibitory concentration (MCIC) was then determined for each replicate set of varying peptide concentrations at which no bacterial growth was observed. […]

Met-Mag 1 dimer (head-to-tail) [Peptide No. 9]
MCIC Values With: P3 Fusarium (P3 Fusarium): 15+/-6 micrograms per mL
MCIC Values (Ecc SR319) ([1]; mean after 20 hours of treatment, at least three replicate experiments): 33 +/- 5 micrograms per mL
activity against Ecc SR319 compared with parent monomers (in words) ([1]; tested at equivalent microgram per mL quantities, parent monomers Pep Nos. 1, 2, 4, and 12): better activity than at least one of the parent monomers
